Test results as given in patent US8119681B2, “2-[1-phenyl-5-hydroxy or methoxy-4alpha-methyl-hexahydrocyclopenta [ƒ]indazole-5-YL]ethyl phenyl derivatives as glucocorticoid receptor ligands” (Merck Sharp & Dohme Corp., priority 2006, dated 2012).

biological target: T1, glucocorticoid receptor (GR) (Homo sapiens, UniProt P04150); assay: Ligand binding assay (GR BIND), 3H-dexamethasone displacement, HeLa cell lysate; settings: Table 1; HeLa cell lysate, 3H-DEX
T1 construct: endogenous in cells; host or cells: HeLa (ATCC) cell lysate supernatant
T1 sequence (P04150 1-777): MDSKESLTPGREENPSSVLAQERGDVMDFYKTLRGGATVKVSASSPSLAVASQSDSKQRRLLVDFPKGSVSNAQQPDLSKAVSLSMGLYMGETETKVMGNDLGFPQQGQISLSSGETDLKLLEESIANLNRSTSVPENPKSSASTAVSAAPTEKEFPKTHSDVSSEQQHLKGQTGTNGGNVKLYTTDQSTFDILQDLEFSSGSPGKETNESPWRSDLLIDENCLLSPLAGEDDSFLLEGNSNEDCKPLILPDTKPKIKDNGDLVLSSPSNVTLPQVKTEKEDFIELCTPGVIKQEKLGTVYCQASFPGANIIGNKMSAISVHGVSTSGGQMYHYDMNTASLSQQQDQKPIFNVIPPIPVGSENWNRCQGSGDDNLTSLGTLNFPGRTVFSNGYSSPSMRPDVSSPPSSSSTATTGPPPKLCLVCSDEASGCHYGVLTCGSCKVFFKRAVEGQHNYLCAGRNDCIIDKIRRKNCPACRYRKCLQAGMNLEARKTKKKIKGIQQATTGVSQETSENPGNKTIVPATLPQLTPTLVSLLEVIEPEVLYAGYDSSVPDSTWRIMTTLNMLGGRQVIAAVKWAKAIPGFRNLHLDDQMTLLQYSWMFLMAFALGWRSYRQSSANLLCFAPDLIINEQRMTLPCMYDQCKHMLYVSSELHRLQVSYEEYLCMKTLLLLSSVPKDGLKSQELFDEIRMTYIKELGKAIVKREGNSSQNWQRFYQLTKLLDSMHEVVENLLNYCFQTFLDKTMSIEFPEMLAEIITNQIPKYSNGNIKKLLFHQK
Description: Binding Buffer: TEGM (10 mM Tris-HCl, 1 mM EDTA, 10% glycerol, 1 mM beta-mercaptoethanol, 10 mM Sodium Molybdate, pH 7.2)
50% HAP Slurry: Calbiochem Hydroxylapatite, Fast Flow, in 10 mM Tris, pH 8.0 and 1 mM EDTA.
Wash Buffer: 40 mM Tris, pH7.5, 100 mM KCl, 1 mM EDTA and 1 mM EGTA.
Dexmethasone-methyl-^3H, (DEX*); (Amersham cat# TRK645)
Dexamethasone (DEX) (Sigma, cat# D1756):
Phenol red-free Trypsin-EDTA is diluted in the same PBS 1:10. The cell layers are rinsed with 1× Trypsin, extra Trypsin is poured out, and the cell layers are incubated at 37° C. for ˜2 min. The flask is tapped and checked for signs of cell detachment. Once the cells begin to slide off the flask, the complete media is added. The cells are counted at this point, then diluted to the appropriate concentration and split into flasks or dishes for further culturing (Usually 1:3 to 1:6 dilution).
Preparation of Hela Cell Lysate
The cell pellet is washed twice with TEGM (10 mM Tris-HCl, 1 mM EDTA, 10% glycerol, 1 mM beta-mercaptoethanol, 10 mM Sodium Molybdate, pH 7.2). After the final wash, the cells are resuspended in TEGM at a concentration of 10^7 cells/mL. The cell suspension is snap frozen in liquid nitrogen or ethanol/dry ice bath and transferred to −80° C. freezer on dry ice. Before setting up the binding assay, the frozen samples are left on ice-water to just thaw (˜1 hr). Then the samples are centrifuged at 12,500 g to 20,000 g for 30 min at 4° C. The supernatant is used to set-up assay right away. If using 50 μL of supernatant, the test compound can be prepared in 50 μL of the TEGM buffer.
Procedure for Multiple Compound Screening
1×TEGM buffer is prepared, and the isotope-containing assay mixture is prepared in the following order: EtOH (2% final concentration in reaction), 3H-DEX (Amersham Biosciences) and 1×TEGM. [e.g. For 100 samples, 200 μL (100×2) of EtOH+4.25 μL of 1:10 ^3H-Dex stock+2300 μL (100×23) 1×TEGM]. The compound is serially diluted, e.g., if starting final conc. is 1 μM, and the compound is in 25 μL of solution, for duplicate samples, 75 μL of 4×1 μM solution is made and 3 μL of 100 μM is added to 72 μL of buffer, and 1:5 serial dilution.
25 μL of ^3H-DEX (6 nM) trace and 25 μL compound solution are first mixed together, followed by addition of 50 μL receptor solution. The reaction is gently mixed, spun briefly at about 200 rpm and incubated at 4° C. overnight. 100 μL of 50% HAP slurry is prepared and added to the incubated reaction which is then vortexed and incubated on ice for 5 to 10 minutes. The reaction mixture is vortexed twice more to resuspend HAP while incubating reaction. The samples in 96-well format are then washed in wash buffer using The FilterMate™ Universal Harvester plate washer (Packard). The washing process transfers HAP pellet containing ligand-bound expressed receptor to Unifilter-96 GF/B filter plate (Packard). The HAP pellet on the filter plate is incubated with 50 μL of MICROSCINT (Packard) scintillant for 30 minutes before being counted on the TopCount microscintillation counter (Packard). IC50s are calculated using DEX as a reference.

In order of falling Ki:
1. CC(O)(C(N)=O)c1ccccc1CC[C@]1(O)CCC2=Cc3c(cnn3-c3ccc(F)cc3)C[C@@]21C (single isomer, unassigned) [Example 150]  11 nM
2. CC(=O)Nc1ccccc1CC[C@]1(O)CCC2=Cc3c(cnn3-c3ccc(F)cc3)C[C@@]21C [Example 14, N-(2-{2-[(4αS,5R)-1-(4-fluorophenyl)-5-hydroxy-4α-methyl-1,4,4α,5,6,7-hexahydrocyclopenta[f]indazol-5-yl]ethyl}phenyl)acetamide]  6.38 nM
3. CC1(NC(=O)c2ccccc2CC[C@]2(O)CCC3=Cc4c(cnn4-c4ccccc4)C[C@@]32C)CC1 [Example 34, 2-{2-[(4αS,5R)-5-hydroxy-4α-methyl-1-phenyl-1,4,4α,5,6,7-hexahydrocyclopenta[f]indazol-5-yl]ethyl}-N-(1-methylcyclopropyl)benzamide]  5.29 nM
4. CNC(=O)Cc1ccccc1CC[C@]1(O)CCC2=Cc3c(cnn3-c3ccc(F)cc3)C[C@@]21C [Example 23, 2-(2-{2-[(4αS,5R)-1-(4-fluorophenyl)-5-hydroxy-4α-methyl-1,4,4α,5,6,7-hexahydrocyclopenta[f]indazol-5-yl]ethyl}phenyl)-N-methylacetamide]  5.09 nM
5. CC1(NC(=O)c2ccccc2CC[C@]2(O)CCC3=Cc4c(cnn4-c4ccc(F)cc4)C[C@@]32C)CC1 [Example 28, 2-{2-[(4αS,5R)-1-(4-fluorophenyl)-5-hydroxy-4α-methyl-1,4,4α,5,6,7-hexahydrocyclopenta[f]indazol-5-yl]ethyl}-N-(1-methylcyclopropyl)benzamide]  3.55 nM
6. CC(C)NC(=O)c1ccccc1CC[C@]1(O)CCC2=Cc3c(cnn3-c3ccc(F)cc3)C[C@@]21C [Example 35, 2-{2-[(4αS,5R)-1-(4-fluorophenyl)-5-hydroxy-4α-methyl-1,4,4α,5,6,7-hexahydrocyclopenta[f]indazol-5-yl]ethyl}-N-isopropylbenzamide]  3.55 nM
7. C[C@]12Cc3cnn(-c4ccc(F)cc4)c3C=C1CC[C@@]2(O)CCc1ccccc1C(F)C(N)=O (single isomer, unassigned) [Example 198]  2.44 nM
8. C[C@]12Cc3cnn(-c4ccc(F)cc4)c3C=C1CC[C@@]2(O)CCc1ccccc1N1CCC1=O [Example 11, 1-(2-{2-[(4αS,5R)-1-(4-fluorophenyl)-5-hydroxy-4α-methyl-1,4,4α,5,6,7-hexahydrocyclopenta[f]indazol-5-yl]ethyl}phenyl)azetidin-2-one]  2.37 nM
9. CCNC(=O)c1ccccc1CC[C@]1(O)CCC2=Cc3c(cnn3-c3ccc(F)cc3)C[C@@]21C [Example 2, N-ethyl-2-{2-[(4αS,5R)-1-(4-fluorophenyl)-5-hydroxy-4α-methyl-1,4,4α,5,6,7-hexahydrocyclopenta[f]indazol-5-yl]ethyl}benzamide]  2.08 nM
10. CC(C(N)=O)c1ccccc1CC[C@]1(O)CCC2=Cc3c(cnn3-c3ccc(F)cc3)C[C@@]21C (single isomer, unassigned) [Example 196]  1.8 nM
11. CCCNC(=O)c1ccccc1CC[C@]1(O)CCC2=Cc3c(cnn3-c3ccc(F)cc3)C[C@@]21C [Example 30, 2-{2-[(4αS,5R)-1-(4-fluorophenyl)-5-hydroxy-4α-methyl-1,4,4α,5,6,7-hexahydrocyclopenta[f]indazol-5-yl]ethyl}-N-propylbenzamide]  1.52 nM
12. COC(=O)C1(NC(=O)c2ccccc2CC[C@]2(O)CCC3=Cc4c(cnn4-c4ccc(F)cc4)C[C@@]32C)CC1 [Example 26, methyl 1-[(2-{2-[(4αS,5R)-1-(4-fluorophenyl)-5-hydroxy-4α-methyl-1,4,4α,5,6,7-hexahydrocyclopenta[f]indazol-5-yl]ethyl}benzoyl)amino]cyclopropanecarboxylate]  1.37 nM
13. C[C@]12Cc3cnn(-c4ccc(F)cc4)c3C=C1CC[C@@]2(O)CCc1ccccc1NS(=O)(=O)C1CC1 [Example 15, N-(2-{2-[(4αS,5R)-1-(4-fluorophenyl)-5-hydroxy-4α-methyl-1,4,4α,5,6,7-hexahydrocyclopenta[f]indazol-5-yl]ethyl}phenyl)cyclopropanesulfonamide]  1.17 nM
14. CC(C)CNC(=O)c1ccccc1CC[C@]1(O)CCC2=Cc3c(cnn3-c3ccc(F)cc3)C[C@@]21C [Example 29, 2-{2-[(4αS,5R)-1-(4-fluorophenyl)-5-hydroxy-4α-methyl-1,4,4α,5,6,7-hexahydrocyclopenta[f]indazol-5-yl]ethyl}-N-isobutylbenzamide]  1.14 nM
15. C[C@]12Cc3cnn(-c4ccc(F)cc4)c3C=C1CC[C@@]2(O)CCc1ccccc1S(C)(=O)=O [Example 19, (4αS,5R)-1-(4-fluorophenyl)-4α-methyl-5-{2-[2-(methylsulfonyl)phenyl]ethyl}-1,4,4α,5,6,7-hexahydrocyclopenta[f]indazol-5-ol]  1.13 nM
16. C=CCNC(=O)c1ccccc1CC[C@]1(O)CCC2=Cc3c(cnn3-c3ccc(F)cc3)C[C@@]21C [Example 33, N-allyl-2-{2-[(4αS,5R)-1-(4-fluorophenyl)-5-hydroxy-4α-methyl-1,4,4α,5,6,7-hexahydrocyclopenta[f]indazol-5-yl]ethyl}benzamide]  1.13 nM
17. CC(CNC(=O)c1ccccc1CC[C@]1(O)CCC2=Cc3c(cnn3-c3ccc(F)cc3)C[C@@]21C)C(F)(F)F (stereo partly drawn) [Example 31, 2-{2-[(4αS,5R)-1-(4-fluorophenyl)-5-hydroxy-4α-methyl-1,4,4α,5,6,7-hexahydrocyclopenta[f]indazol-5-yl]ethyl}-N-(3,3,3-trifluoro-2-methylpropyl)benzamide]  0.9 nM
18. C=C(C)CNC(=O)c1ccccc1CC[C@]1(O)CCC2=Cc3c(cnn3-c3ccc(F)cc3)C[C@@]21C [Example 32, 2-{2-[(4αS,5R)-1-(4-fluorophenyl)-5-hydroxy-4α-methyl-1,4,4α,5,6,7-hexahydrocyclopenta[f]indazol-5-yl]ethyl}-N-(2-methylprop-2-en-1-yl)benzamide]  0.49 nM
19. C[C@]12Cc3cnn(-c4ccc(F)cc4)c3C=C1CC[C@@]2(O)CCc1ccccc1CNS(=O)(=O)C1CC1 [Example 5, N-(2-{2-[(4αS,5R)-1-(4-fluorophenyl)-5-hydroxy-4α-methyl-1,4,4α,5,6,7-hexahydrocyclopenta[f]indazol-5-yl]ethyl}benzyl)cyclopropanesulfonamide]  0.44 nM

same assay, conditions: Table 2; prior-art comparison compounds

In order of falling Ki:
1. C[C@]12Cc3cnn(-c4ccc(F)cc4)c3C=C1CC[C@@]2(O)CCc1ccccc1 [Example 2 WO 2004/075840 A2, reference compound]  5.24 nM
2. C[C@]12Cc3cnn(-c4ccc(F)cc4)c3C=C1CCC[C@@H]2[C@@H](O)Cc1ccccc1 [Example 22 WO 03/086294 A2, reference compound]  1.27 nM
